Data published in patent publication US20070148660A1, “Treatment of maladaptive substance use with H-ras antagonists” (The Regents of the University of California, priority 2005, published 2007).
One block for each molecule: values may come before it.

Legend:
Ras = Ras activity assay (Raf-1-Ras binding domain GST-agarose), hippocampal slices; type: cell-based, mouse
Procedure: The treated hippocampal homogenates (250 μg) were incubated with […] of Raf-1-Ras binding domain GST-agarose for 45 min at 4° C. while rotating, as per manufacturer's instructions. […] Results were quantified by NIH Image 1.61.

[1] = target: Raf-1-Ras binding domain GST agarose (UniProt P04049); test: pull-down of hippocampal homogenates with Raf-1-Ras binding domain GST-agarose, Western blot with pan anti-Ras; ratio of Ras-GTP over total Ras, normalized to the control
NMDAR = test: NMDAR-mediated EPSCs, whole-cell voltage clamp, hippocampal CA1; type: cell-based, mouse; conditions: for effect on the ethanol-induced inhibition of NMDAR-mediated EPSCs: inhibitor applied before ethanol, hippocampal slices
Procedure: Electrophysiological recordings were performed in C57BL/6J mice ranging from P21 to P26. Briefly, mice were anesthetized with halothane and decapitated as per University of California, San Francisco animal care guidelines. Horizontal sections of the hippocampus ([…]) were prepared with a vibratome (Leica, Nussloch, Germany). Slices were placed in a holding chamber and allowed to recover for at least 1 hr before being placed in the recording chamber and superfused with aCSF saturated with 95% O2/5% CO2 and containing (in mM): 119 NaCl, 1.6 KCl, 1.0 NaH2PO4, 1.3 MgCl2 (for EPSCs) or 0.01 MgCl2 (for field excitatory postsynaptic potentials (fEPSPs)), 2.5 CaCl2, 26.2 NaHCO3 and 11 glucose. Picrotoxin (100 μM) was added to block gamma-aminobutyric acid-A (GABAA) receptor-mediated inhibitory synaptic transmission, and CNQX (for EPSCs) or NBQX (for fEPSPs) (10 μM) was added to block α-amino-3-hydroxy-5-methyl-4-isoxalepropionate (AMPA)/Kainate receptors. Cells were visualized using infrared differential interference contrast video microscopy.
Whole-cell voltage clamp-recordings were made using an Axopatch ID or a MultiClamp 700A amplifier (Axon Instruments, Union City, Calif.). Electrodes (3.5-5.0 MΩ) contained (in mM): 120 Cesium methansulfonate, 20 HEPES, 0.4 EGTA, 2.8 NaCl, 5 TEA-Cl, 2.5 MgATP, and 0.25 NaGTP (pH 7.2-7.3), buffer at 270-285 mOsm. Series resistance (10-30 MΩ) and input resistance were monitored on-line with a 4 mV depolarizing step (50 ms) given just after every afferent stimulus. Recordings from the CA1 region of the hippocampus were obtained with a bipolar stimulating electrode that was placed 100-300 μm rostral to the recording electrode and was used to stimulate excitatory afferents at 0.1 Hz. Neurons were voltage-clamped at +40 mV to evoke NMDAR-mediated EPSCs. At this potential, NMDARs have a maximal open probability and the Mg^2+ block is removed. EPSCs were filtered at 2 kHz, digitized at 5-10 kHz and collected on-line using Igor Pro software (Wavemetrics, Lake Oswego, Oreg.) or pClamp 9 (Axon Instruments, Union City, Calif.). NMDAR example traces were constructed by averaging 20 EPSCs (200 sec) elicited at +40 mV during baseline, ethanol application, drug application or drug application with ethanol. To calculate the decay time (τ), Igor Pro software was used to fit exponential decay curves to averaged NMDAR-mediated EPSCs using the formula: y=A1exp(−invTau1*x)+A2exp(−invTau2X).

Molecule: Tat-peptide: Tat-peptide (YGRKKRRQRRR: SEQ ID NO:2) synthesized by Syn Pep, used as a control
- effect on ethanol-mediated increase in endogenous Ras activity (Ras; pre-incubation 2 hrs (Tat-H-Ras DN printed 2 mM, Tat-peptide 2 μM), then 100 mM ethanol 15 min): did not

- fold increase of Ras-GTP pulled down, ethanol-treated over control slices [1]: 2 fold
Molecule: GTP-bound active Ras, endogenous in mouse hippocampal slices (from UniProt Q61411 1-186)

Molecule: CC(C(O)c1ccc(O)cc1)N1CCC(Cc2ccccc2)CC1 (centres unmarked) [ifenprodil, reference compound]
- decrease of NMDAR EPSCs (NMDAR; ifenprodil 3 μM, n=5): 37+5%
- NMDAR-mediated EPSCs in slices treated with both ethanol and NVP-AAM077 (NMDAR; ifenprodil application, data not shown): further inhibition
- weighted decay time (NMDAR; in the presence of ifenprodil (3 μM), n=7, baseline 41.2±3.4 ms): 34.7 ± 4.5 ms
- effect on the ethanol-induced inhibition of NMDAR-mediated EPSCs (NMDAR): did not

Molecule: C[C@H](NC(c1cccc2[nH]c(=O)c(=O)[nH]c12)P(=O)(O)O)c1ccc(Br)cc1 (some centres unmarked) [NVP-AAM077, reference compound]
- decrease of NMDAR EPSCs (NMDAR; NVP-AAM077 0.4 μM, n=6): 55±4%
- NMDAR-mediated EPSCs in slices first treated with ethanol and ifenprodil (NMDAR; NVP-AAM077 application, data not shown): no effect
- weighted decay time (NMDAR; in the presence of NVP-AM077 (0.4 μM), n=6, baseline 43.0±2.1 ms): 68.7 ± 9.4 ms
- effect on the ethanol-induced inhibition of NMDAR-mediated EPSCs (NMDAR): occluded

- Ras activity (Ras; 50 mM KCl, 5 min, hippocampal slices): increases Ras activity
Molecule: [Cl-].[K+] [KCl]
